According to patent publication US11780841B2, “3,6-methano-1H-pyrrolo[3,2-b]pyridine and 3,6-methano-1H-pyrrolo[3,2-c]pyridine compounds and medicaments using same” (priority 2018, dated 2023):

System: recombinant rabies virus 1088 strain expressing Gaussia Luciferase (GLuc) (1088/GLuc)
Type: cell-based
Conditions: read-out: Anti-rabies activity

SMILES | IC50 [µM]
O=C(NCCO)C12NCC3CC1CN(Cc1cccc4ccccc14)C2C3Cc1ccccc1 (stereo not shown) [IB-588] | < 5
CC(C)CC1C2CNC3(C(=O)NCc4cccc5ccccc45)C(C2)CN(Cc2ccc(O)cc2)C13 (stereo not shown) [IB-541] | < 5
CC(C)CNC(=O)[C@@]12C[C@@H]3CN(Cc4ccc(F)cc4)[C@@H]([C@@H]3CN1)[C@H]2Cc1ccccc1 [IF-653] | 10 to 30
O=C(O)CC[C@@H]1[C@@H]2[C@@H]3CN[C@@]1(C(=O)NCc1cccc4ccccc14)C[C@@H]3CN2CC1CCCCC1 [IF-419] | 10 to 30
CC(C)C[C@@H]1[C@H]2CN[C@@]3(C(=O)NCc4ccc(Cl)cc4)[C@@H](C2)CN(CC(C)C)[C@@H]13 [IB-871] | 10 to 30
CC(C)NC(=O)[C@@]12C[C@@H]3CN(Cc4ccc(F)cc4)[C@@H]([C@@H]3CN1)[C@H]2CCCNC(=N)N [IF-274] | 10 to 30
CC(C)CCNC(=O)[C@]12NC[C@H]3C[C@H]1CN(Cc1ccc(O)cc1)[C@H]2[C@@H]3CC(C)C [IB-739] | 10 to 30
CC(C)CCNC(=O)[C@]12NC[C@H]3C[C@H]1CN(CC(C)C)[C@H]2[C@@H]3Cc1ccccc1 [IB-780] | < 5
O=C(NCCc1ccccc1)[C@@]12C[C@@H]3CN(CC4CCCCC4)[C@@H]([C@@H]3CN1)[C@H]2Cc1ccccc1 [IF-710] | < 5
CC(C)CNC(=O)[C@]12NC[C@H]3C[C@H]1CN(Cc1ccc(F)cc1)[C@H]2[C@@H]3CC(C)C [IB-630] | < 5
CC(C)C[C@@H]1[C@@H]2[C@@H]3CN[C@@]1(C(=O)NCc1ccccc1)C[C@@H]3CN2CCc1ccccc1 [IF-639] | < 5
Cc1cccc(C[C@@H]2[C@@H]3CN[C@@]4(C(=O)NCc5ccccc5)[C@@H](C3)CN(CC(C)C)[C@@H]24)c1 (relative stereo) [IB-13] | 10 to 30
CC(C)CCC1C2C3C=NC1(C(=O)NCc1ccccc1)CC3CN2Cc1ccc(O)cc1 (stereo not shown) [IIF-101] | 5 to 10
CC(C)C[C@@H]1[C@@H]2[C@@H]3CN[C@@]1(C(=O)NCCc1ccccc1)C[C@@H]3CN2CC(C)C [IF-725] | 10 to 30
CC(C)C[C@@H]1[C@H]2CN[C@@]3(C(=O)NCCC(N)=O)[C@@H](C2)CN(CCc2ccccc2)[C@@H]13 [IB-708] | < 5
CC(C)CNC(=O)[C@@]12C[C@@H]3CN(Cc4ccc(F)cc4)[C@@H]([C@@H]3CN1)[C@H]2CC(N)=O [IF-262] | < 5
Cc1ccc(CN2CC3CC4C=NC3(C(=O)NCc3ccccc3)C2C4CC(C)C)cc1 (stereo not shown) [IIB-86] | 5 to 10
O=C(O)CCN1CC2CC3CNC2(C(=O)NCc2ccc(O)cc2)C1C3CCc1ccccc1 (stereo not shown) [IB-515] | 10 to 30
CC(C)CC[C@@H]1[C@H]2CN[C@@]3(C(=O)NCC(C)C)[C@@H](C2)CN(CCO)[C@@H]13 [IB-372] | 10 to 30
CC(C)C[C@@H]1[C@@H]2[C@@H]3CN[C@@]1(C(=O)NCc1cccc(O)c1)C[C@@H]3CN2Cc1ccc(N(C)C)cc1 [IF-866] | 10 to 30
CC(C)CC[C@@H]1[C@H]2CN[C@@]3(C(=O)NCCC(N)=O)[C@@H](C2)CN(Cc2cccc4ccccc24)[C@@H]13 [IB-349] | < 5
O=C(NCCc1ccccc1)[C@@]12C[C@@H]3CN(Cc4ccc(F)cc4)[C@@H]([C@@H]3CN1)[C@H]2Cc1ccccc1 (relative stereo) [IF-586] | 10 to 30
NC(=O)C[C@@H]1[C@@H]2[C@@H]3CN[C@@]1(C(=O)NCCc1ccccc1)C[C@@H]3CN2Cc1ccc(F)cc1 [IF-269] | 10 to 30
CC(C)CCN1C[C@@H]2C[C@@H]3CN[C@]2(C(=O)NCCC(N)=O)[C@@H]1[C@@H]3CCc1ccccc1 [IB-636] | 10 to 30
CCCCCCNC(=O)[C@@]12C[C@@H]3CN(CCc4ccccc4)[C@@H]([C@@H]3CN1)[C@H]2Cc1ccccc1 (relative stereo) [IF-602] | 10 to 30
N=C(N)NCCCNC(=O)[C@@]12C[C@@H]3CN(Cc4cccc5ccccc45)[C@@H]([C@@H]3CN1)[C@H]2Cc1cccc2ccccc12 [IF-390] | 10 to 30
O=C(O)CCNC(=O)[C@]12NC[C@H]3C[C@H]1CN(Cc1ccc(F)cc1)[C@H]2[C@@H]3Cc1cccc2ccccc12 [IB-384] | 10 to 30
CC(C)C[C@@H]1[C@@H]2[C@@H]3CN[C@@]1(C(=O)NCc1cccc4ccccc14)C[C@@H]3CN2CC(N)=O (relative stereo) [IF-81] | 10 to 30

Same assay, conditions: read-out: IC50

SMILES | IC50 [µM]
Cc1cccc(C[C@@H]2[C@@H]3CN[C@@]4(C(=O)NCc5ccccc5)[C@@H](C3)CN(CC(C)C)[C@@H]24)c1 (relative stereo) [IB-13] | 14.3

Same assay, conditions: read-out: anti-rabies virus activity IC50

SMILES | IC50 [µM]
NC(=O)c1nc(F)c[nH]c1=O [Compound T-705, Favipiravir] | 30

System: rabies virus
Conditions: mouse, in vivo; cited from earlier work

SMILES | prophylactic effect on rabies virus
NC(=O)c1nc(F)c[nH]c1=O [Compound T-705, Favipiravir] | significant prophylactic effect was confirmed
